Measurements taken from PubChem BioAssay AID651772 (Broad Institute, 2012).
Values joined by “and” are separate entries in the source; they are usually repeats but may differ in a detail not shown here. Equal values may be shown once. Inconclusive results are not listed. Active and inactive are the calls of the source.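 Rule for the calls: active = compounds whose fitted curve reaches 40% higher CDK2 Ct shift, meaning less CDK2 mRNA, within twice the top dose; inconclusive = flat curve with 30 to 70% opposite effect, or poor fit; inactive = the rest.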

Columns and labels:
[1] = system: SK-MEL-5 CDK2 mRNA, RT-qPCR delta-delta-Ct, overnight; assay: suppression of MITF target gene CDK2 mRNA, dose response, orthogonal assay for MITF inhibitor project, cell-based, SK-MEL-5, RT-qPCR, dry powder samples (AID 651772)
[2] = as above; conditions: SK-MEL-5 CDK2 mRNA, RT-qPCR delta-delta-Ct, overnight

Structure (SMILES): NS(=O)(=O)c1ccc(NC2=CC(=O)c3ccccc3C2=O)cc1
- AC40 [1]: 141 nM

Structure (SMILES): CCN1CCN(C2=C(NC(=O)c3ccccc3)C(=O)c3ccccc3C2=O)CC1
- AC40 [1]: 2410 nM

Structure (SMILES): NC1=C(NC(=O)c2ccccc2)C(=O)c2ccccc2C1=O
- AC40 [1]: 882 nM

Structure (SMILES): COC1=C(Nc2ccccc2)C(=O)c2ccccc2C1=O
- AC40 [1]: 204 nM

Structure (SMILES): O=C1C=C(Nc2ccc([N+](=O)[O-])c(C(F)(F)F)c2)C(=O)c2ccccc21
- AC40 [1]: 78.7 nM

Structure (SMILES): CC(C)N1CCN(C2=C(Nc3ccc(F)cc3)C(=O)c3ccccc3C2=O)CC1
- AC40 [1]: 6510 nM

Structure (SMILES): CN1CCN(C2=C(Nc3ccc(F)cc3F)C(=O)c3ccccc3C2=O)CC1
- AC40 [1]: 2450 nM

Structure (SMILES): CC(C)N1CCN(C2=C(Nc3ccc(F)cc3F)C(=O)c3ccccc3C2=O)CC1
- AC40 [1]: 1770 nM

Structure (SMILES): O=C1C(Nc2ccc(F)cc2)=C(N2CCCCC2)C(=O)c2ccccc21
- AC40 [1]: 8220 nM

Structure (SMILES): COC1=C(NS(=O)(=O)c2ccc(Br)cc2)C(=O)c2ccccc2C1=O
- AC40 [1]: 4290 nM

Structure (SMILES): CN1CCN(C2=C(NS(=O)(=O)c3ccc(Br)s3)C(=O)c3ccccc3C2=O)CC1
- AC40 [1]: 7940 nM

Structure (SMILES): O=C1C(Nc2ccc(Cl)cc2)=C(N2CCCC2)C(=O)c2ccccc21
- AC40 [1]: 9910 nM

Structure (SMILES): NC1=C(NS(=O)(=O)c2ccccc2)C(=O)c2ccccc2C1=O
- AC40 [1]: 4390 nM

Structure (SMILES): CCN1CCN(C2=C(Nc3ccc(F)cc3F)C(=O)c3ccccc3C2=O)CC1
- AC40 [1]: 1410 nM

Structure (SMILES): O=C(NC1=C(Cl)C(=O)c2ccccc2C1=O)c1ccccc1
- AC40 [1]: 203 nM

Structure (SMILES): COC1=C(NS(=O)(=O)c2ccccc2)C(=O)c2ccccc2C1=O
- AC40 [1]: 3500 nM

Structure (SMILES): O=C1C=C(NS(=O)(=O)c2ccc(Br)cc2)C(=O)c2ccccc21
- AC40 [1]: 358 nM

Structure (SMILES): O=C1C(Nc2ccccc2)=C(c2ccccc2)C(=O)c2ccccc21
- AC40 [1]: 7060 nM

Structure (SMILES): CCN1CCN(C2=C(NS(=O)(=O)c3ccc(Br)cc3)C(=O)c3ccccc3C2=O)CC1
- AC40 [1]: 14100 nM

Structure (SMILES): O=C1C(NS(=O)(=O)c2cccs2)=C(c2ccccc2)C(=O)c2ccccc21
- AC40 [1]: 3790 nM

Structure (SMILES): O=C1C=C(NS(=O)(=O)c2cccs2)C(=O)c2ccccc21
- AC40 [1]: 339 nM

Structure (SMILES): COC1=C(NS(=O)(=O)c2cccs2)C(=O)c2ccccc2C1=O
- AC40 [1]: 9340 nM

Structure (SMILES): NC1=CC(=O)c2ccccc2C1=O
- AC40 [1]: 300 nM

Structure (SMILES): O=C1C=C(NS(=O)(=O)c2ccccc2)C(=O)c2ccccc21
- AC40 [1]: 138 nM

Structure (SMILES): O=C1C=C(Nc2ccccc2)C(=O)c2ccccc21
- AC40 [1]: 571 nM and 394 nM

Structure (SMILES): NC1=C(NS(=O)(=O)c2ccc(Br)cc2)C(=O)c2ccccc2C1=O
- AC40 [1]: 9610 nM

Structure (SMILES): C=CCNC1=C(Cl)C(=O)c2ccccc2C1=O
- AC40 [1]: 1460 nM

Structure (SMILES): NC1=C(NS(=O)(=O)c2ccc(Br)s2)C(=O)c2ccccc2C1=O
- outcome [2]: inactive

Structure (SMILES): Cc1nc2ccccc2n1/N=C/c1ccc([N+](=O)[O-])s1
- AC40 [1]: 2920 nM

Structure (SMILES): NC1=C(NS(=O)(=O)c2cccs2)C(=O)c2ccccc2C1=O
- AC40 [1]: 1980 nM
